Measured values reported in PubChem BioAssay (NCI).
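Exposure lasted 48 hours, with cells grown in 96-well plates and compounds tested at five concentrations. TGI denotes the concentration required for complete inhibition of growth.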

How the values were obtained:
Assay in all cases: NCI anticancer screen, dose series, 48 h
[1] = tested on: PC-3 prostate
[2] = tested on: LXFL 529 NSCLC
[3] = tested on: SNB-78 CNS
[4] = tested on: OVCAR-8 ovarian
[5] = tested on: M19-MEL melanoma
[6] = tested on: MCF7 breast
[7] = tested on: HL-60(TB) leukemia
[8] = tested on: SF-295 CNS
[9] = tested on: COLO 205 colon
[10] = tested on: HS 578T breast
[11] = tested on: SK-MEL-2 melanoma
[12] = tested on: HOP-92 NSCLC
[13] = tested on: MDA-N
[14] = tested on: HCT-15 colon
[15] = tested on: SF-539 CNS
[16] = tested on: 786-0 renal
[17] = tested on: OVCAR-4 ovarian
[18] = tested on: SW-620 colon
[19] = tested on: NCI-H226 lung
[20] = tested on: ACHN renal
[21] = tested on: CCRF-CEM leukemia
[22] = tested on: EKVX NSCLC
[23] = tested on: MDA-MB-231 breast
[24] = tested on: SF-268 CNS
[25] = tested on: NCI-H522 lung
[26] = tested on: HOP-18 NSCLC
[27] = tested on: KM12 colon
[28] = tested on: HCC-2998 colon
[29] = tested on: SN12C renal
[30] = tested on: SK-OV-3 ovarian
[31] = tested on: MOLT-4 leukemia
[32] = tested on: TK-10 renal
[33] = tested on: U251 CNS
[34] = tested on: HCT-116 colon
[35] = tested on: OVCAR-5 ovarian
[36] = tested on: NCI-H23 lung
[37] = tested on: T-47D breast
[38] = tested on: SK-MEL-5 melanoma
[39] = tested on: NCI-H460 lung
[40] = tested on: HT29 colon
[41] = tested on: K-562 leukemia
[42] = tested on: RXF 393 renal
[43] = tested on: M14 melanoma
[44] = tested on: SK-MEL-28 melanoma
[45] = tested on: BT-549 breast
[46] = tested on: SNB-19 CNS
[47] = tested on: UACC-257 melanoma
[48] = tested on: DMS 114 small cell lung
[49] = tested on: DLD-1 colon
[50] = tested on: LOX IMVI melanoma
[51] = tested on: RPMI-8226 leukemia
[52] = tested on: DU-145 prostate
[53] = tested on: A498 renal
[54] = tested on: OVCAR-3 ovarian
[55] = tested on: CAKI-1 renal
[56] = tested on: NCI/ADR-RES ovarian
[57] = tested on: MALME-3M melanoma
[58] = tested on: UO-31 renal
[59] = tested on: HOP-62 NSCLC
[60] = tested on: SNB-75 CNS
[61] = tested on: IGROV1 ovarian
[62] = tested on: MDA-MB-435
[63] = tested on: UACC-62 melanoma
[64] = tested on: KM20L2 colon
[65] = tested on: A549 NSCLC
[66] = tested on: SR leukemia
[67] = tested on: DMS 273 small cell lung

Compound: N#CC(NNC(=O)c1ccccc1O)c1c(O)ccc2ccccc12 (centres undefined)
- TGI [1]: > 55.1 µM
- TGI [2]: 33.4 µM
- TGI [3]: > 100 µM
- TGI [4]: 25.9 µM
- TGI [5]: 9.62 µM
- TGI [6]: 53.6 µM
- TGI [7]: 12.2 µM
- TGI [8]: 50.5 µM
- TGI [9]: 23.6 µM
- TGI [10]: > 86.2 µM
- TGI [11]: 33.3 µM
- TGI [12]: 40.7 µM
- TGI [13]: > 63.2 µM
- TGI [14]: 32.8 µM
- TGI [15]: 23.1 µM
- TGI [16]: 58.8 µM
- TGI [17]: 23.3 µM
- TGI [18]: > 60.9 µM
- TGI [19]: 13.4 µM
- TGI [20]: 22.2 µM
- TGI [21]: > 90.9 µM
- TGI [22]: 51.7 µM
- TGI [23]: 27.7 µM
- TGI [24]: 64.9 µM
- TGI [25]: 18.7 µM
- TGI [26]: 8.2 µM
- TGI [27]: > 100 µM
- TGI [28]: > 100 µM
- TGI [29]: 37.9 µM
- TGI [30]: 40.7 µM
- TGI [31]: 37.8 µM
- TGI [32]: 36.5 µM
- TGI [33]: 37.1 µM
- TGI [34]: 14.8 µM
- TGI [35]: 21.1 µM
- TGI [36]: 20.8 µM
- TGI [37]: 18.7 µM
- TGI [38]: 10.4 µM
- TGI [39]: 36.8 µM
- TGI [40]: > 87.7 µM
- TGI [41]: > 66.3 µM
- TGI [42]: 29.9 µM
- TGI [43]: 30 µM
- TGI [44]: > 100 µM
- TGI [45]: > 54.8 µM
- TGI [46]: > 100 µM
- TGI [47]: 24.9 µM
- TGI [48]: 5.14 µM
- TGI [49]: > 100 µM
- TGI [50]: 6.64 µM
- TGI [51]: 43 µM
- TGI [52]: 18.4 µM
- TGI [53]: > 66 µM
- TGI [54]: 23.8 µM
- TGI [55]: 21 µM
- TGI [56]: 19.3 µM
- TGI [57]: 27.6 µM
- TGI [58]: 11.4 µM
- TGI [59]: 29.5 µM
- TGI [60]: 48.3 µM
- TGI [61]: 33.9 µM
- TGI [62]: 43.4 µM
- TGI [63]: 9.32 µM
- TGI [64]: 68 µM
- TGI [65]: 26.8 µM
- TGI [66]: 40.8 µM
- TGI [67]: 14.2 µM

Compound: COc1ccc(OC)c2c(=O)c3ccccc3[nH]c12
- TGI [3]: > 100 µM
- TGI [4]: > 100 µM
- TGI [5]: > 100 µM
- TGI [7]: > 100 µM
- TGI [12]: > 100 µM
- TGI [19]: 94.1 µM
- TGI [21]: > 100 µM
- TGI [22]: > 100 µM
- TGI [24]: > 100 µM
- TGI [25]: > 100 µM
- TGI [27]: > 100 µM
- TGI [30]: > 100 µM
- TGI [31]: > 100 µM
- TGI [32]: > 100 µM
- TGI [33]: > 100 µM
- TGI [34]: > 100 µM
- TGI [35]: > 100 µM
- TGI [36]: > 100 µM
- TGI [39]: > 100 µM
- TGI [40]: > 100 µM
- TGI [42]: > 100 µM
- TGI [43]: > 100 µM
- TGI [44]: > 100 µM
- TGI [46]: > 100 µM
- TGI [47]: > 100 µM
- TGI [48]: > 100 µM
- TGI [53]: > 100 µM
- TGI [58]: > 100 µM
- TGI [59]: > 100 µM
- TGI [61]: > 100 µM
- TGI [63]: > 100 µM
- TGI [65]: > 100 µM
- TGI [66]: > 100 µM
- TGI [67]: > 100 µM

Compound: Cn1c(NC(=O)NC23CC4CC(CC(C4)C2)C3)nc2ccccc21
- TGI [2]: > 100 µM
- TGI [3]: 97 µM
- TGI [4]: > 100 µM
- TGI [5]: > 100 µM
- TGI [7]: > 100 µM
- TGI [8]: 52.3 µM
- TGI [9]: > 100 µM
- TGI [11]: > 100 µM
- TGI [12]: 90.6 µM
- TGI [14]: > 100 µM
- TGI [15]: > 100 µM
- TGI [16]: 81.5 µM
- TGI [17]: 28.5 µM
- TGI [18]: > 100 µM
- TGI [19]: > 100 µM
- TGI [20]: > 100 µM
- TGI [22]: > 100 µM
- TGI [24]: > 100 µM
- TGI [25]: > 100 µM
- TGI [26]: > 100 µM
- TGI [27]: > 100 µM
- TGI [28]: > 100 µM
- TGI [29]: > 100 µM
- TGI [30]: 51.8 µM
- TGI [31]: > 100 µM
- TGI [32]: > 100 µM
- TGI [33]: > 100 µM
- TGI [34]: > 100 µM
- TGI [35]: > 100 µM
- TGI [36]: > 100 µM
- TGI [38]: > 100 µM
- TGI [39]: > 100 µM
- TGI [40]: > 100 µM
- TGI [41]: > 100 µM
- TGI [42]: 57.4 µM
- TGI [43]: > 100 µM
- TGI [44]: > 100 µM
- TGI [46]: > 100 µM
- TGI [47]: > 100 µM
- TGI [49]: > 100 µM
- TGI [50]: > 100 µM
- TGI [51]: > 100 µM
- TGI [54]: > 100 µM
- TGI [55]: > 100 µM
- TGI [57]: 81.6 µM
- TGI [58]: > 100 µM
- TGI [59]: > 100 µM
- TGI [60]: 21.1 µM
- TGI [61]: > 100 µM
- TGI [63]: > 100 µM
- TGI [64]: > 100 µM
- TGI [65]: > 100 µM
- TGI [66]: > 100 µM
- TGI [67]: > 100 µM

Compound: O=C1C2CC[C@@H]3C(=O)C(Cl)(Cl)[C@@H]3CCC2C1(Cl)Cl (some centres undefined)
- TGI [1]: > 100 µM
- TGI [4]: > 100 µM
- TGI [6]: > 91.1 µM
- TGI [7]: 16.7 µM
- TGI [8]: > 100 µM
- TGI [9]: > 100 µM
- TGI [10]: > 100 µM
- TGI [11]: > 100 µM
- TGI [12]: > 100 µM
- TGI [13]: > 100 µM
- TGI [14]: > 100 µM
- TGI [15]: > 90.5 µM
- TGI [16]: > 100 µM
- TGI [17]: > 100 µM
- TGI [18]: > 100 µM
- TGI [19]: > 100 µM
- TGI [20]: > 100 µM
- TGI [21]: 63.8 µM
- TGI [22]: > 100 µM
- TGI [23]: > 100 µM
- TGI [24]: > 100 µM
- TGI [25]: > 100 µM
- TGI [27]: > 100 µM
- TGI [28]: > 100 µM
- TGI [29]: > 100 µM
- TGI [30]: > 100 µM
- TGI [31]: 74.7 µM
- TGI [32]: > 100 µM
- TGI [33]: > 100 µM
- TGI [34]: > 100 µM
- TGI [35]: > 100 µM
- TGI [36]: > 100 µM
- TGI [37]: > 100 µM
- TGI [38]: > 100 µM
- TGI [39]: > 100 µM
- TGI [40]: > 100 µM
- TGI [41]: > 100 µM
- TGI [42]: > 100 µM
- TGI [43]: > 100 µM
- TGI [44]: > 100 µM
- TGI [45]: > 100 µM
- TGI [46]: > 100 µM
- TGI [47]: > 100 µM
- TGI [50]: > 100 µM
- TGI [51]: > 100 µM
- TGI [52]: > 100 µM
- TGI [53]: > 100 µM
- TGI [54]: > 100 µM
- TGI [55]: > 100 µM
- TGI [56]: > 100 µM
- TGI [57]: > 100 µM
- TGI [58]: > 100 µM
- TGI [59]: > 29.7 µM
- TGI [60]: > 100 µM
- TGI [61]: > 100 µM
- TGI [62]: > 100 µM
- TGI [63]: > 100 µM
- TGI [65]: > 100 µM
- TGI [66]: 70.3 µM
